# Experimental data taken from article PMC10725991, “Kaempferol is a novel antiviral agent against channel catfish virus infection through blocking viral attachment and penetration in vitro” (Frontiers in Veterinary Science, 2023).
# Key:
# CCV in CCO cells [1] = test: Virus titration assay (TCID50) after kaempferol treatment; type: cell-based, Channel catfish virus (CCV, Ictalurid herpesvirus 1); conditions: increasing concentration 2.5-15 μg/mL, 24 and 36 h post CCV infection
# Experimental: The CCO cells were infected with the CCV at 10^3 TCID50/ml at 28°C for 1 h. Then, the cell culture medium was replaced using isopycnic DMEM medium containing various concentrations kaempferol (2.5, 5, 7.5, 10, 12.5, and 15 μg/mL). The cells without exposure to kaempferol and CCV were set as the mock control. CCV-infected cells served as a negative control. 24 and 36 h post-infection, the cells were collected and subjected to the RT-qPCR and western blot analysis for the viral gene and protein expression. Meanwhile, the cells were treated as described above for the determination of virus titer. The supernatant and cell pellets were collected at 24 and 36 h post-infection and the TCID50 was used to evaluate the viral loads of intracellular and extracellular.
# (§1) Measurement of viral titer was described previously ([5]). […]
# Figure 3 The anti-CCV activity by different concentration of kaempferol in vitro. […] The relative expression levels of the CCV ORF 39 and ORF 59 genes were evaluated by RT-qPCR at 24 h (A) and 36 h (B) post-infection. […] The cells were collected at 24 h (E) and 36 h (F) after infection and CCV ORF 39 and ORF59 proteins and cellular GADPH were analyzed by western blot. (G) The intracellular and released CCV virions separated from cell lysates and supernatants at 24 h and 36 h post infection were analyzed by viral titer. […] The p value was determined by *p < 0.05, **p < 0.01.
# CCV in CCO cells [2] = test: Virus attachment assay; type: cell-based, Channel catfish virus (CCV, Ictalurid herpesvirus 1); conditions: kaempferol 15 μg/mL, 24 h
# Experimental: The attachment assay was performed as previously described, with slight modifications ([35]). Briefly, monolayer CCO cells seeded in 24-well plates were pre-cooled at 4°C for 30 min, and then the pre-cooled cells were treated with kaempferol (15 μg/mL) or left untreated for 2 h at 4°C. Cells were then incubated with CCV at 4°C for 1 h to allow virus attachment but prevent viral internalization. Thereafter, the compound and unattached virus were washed with ice-cold PBS and a fresh DMEM medium was added. After incubated at 28°C for 24 h, the cells were collected for subsequent experiments, including RT-qPCR and viral titer.
# as §1
# For RT-qPCR, the total RNA was isolated from CCV-infected cells using RnaExTM (Trizol)^a reagent (GENERAY, China), and reversed transcribed applying a HiScript III RT SuperMix with gDNA wiper (Vazyme, China) following the manufacturer’s instructions. Quantitative PCR was performed with a LightCycler 96 Real-Time PCR Detection System (Roche, USA) using ChamQ Universal SYBR qPCR Master Mix (Vazyme, China) with the following cycle conditions: 95°C for 30 s, followed by 40 cycles of 95°C for 10 s and 60°C for 30 s. […] Fold changes of the selected gene vs 18 s (internal reference) were calculated by the 2^−△△Ct method. […]
compound,measurement,setting,value
O=c1c(O)c(-c2ccc(O)cc2)oc2cc(O)cc(O)c12 [Kaempferol],intracellular and progeny viral loads (viral titer),CCV in CCO cells [1],dramatically reduced
same,"down-regulation of viral attachment (CCV ORF 39/ORF 59, RT-qPCR) vs CCV control",CCV in CCO cells [2]; 2 h at 4°C,more than 50%
same,"production of intracellular virus (virus titer), attachment assay",CCV in CCO cells [2],significantly reduced
